Blank lines part the entries; values can stand above or below the molecule they belong to.
Biological target: T1, α4β1 integrin (Homo sapiens, UniProt P05556+P13612)
T1 construct: endogenous in cells; host or cells: Ramos cells
Experiment: Adhesion of calcein-labeled Ramos cells to CS1 (fibronectin) peptide conjugated ovalbumin
Format: cell-based
Conditions: Ramos cell adhesion to CS1 conjugated ovalbumin
How it was run: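 Calcein AM-labelled Ramos cells (2.5×10^5/well) with compound, up to 100 μM, added to plates coated with CS1 peptide–ovalbumin (0.5 μg/ml) and blocked with 3% BSA. Binding buffer TBS pH 7.5 with 1 mM each MgCl2, CaCl2, MnCl2; 30 min, 37 °C. After washes, adherent cells lysed and read fluorometrically; […].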

[1] = Table 7, dose required to give 50% inhibition
[2] = Table 5, dose required to give 50% inhibition

T1 sequence (P13612 34-1032): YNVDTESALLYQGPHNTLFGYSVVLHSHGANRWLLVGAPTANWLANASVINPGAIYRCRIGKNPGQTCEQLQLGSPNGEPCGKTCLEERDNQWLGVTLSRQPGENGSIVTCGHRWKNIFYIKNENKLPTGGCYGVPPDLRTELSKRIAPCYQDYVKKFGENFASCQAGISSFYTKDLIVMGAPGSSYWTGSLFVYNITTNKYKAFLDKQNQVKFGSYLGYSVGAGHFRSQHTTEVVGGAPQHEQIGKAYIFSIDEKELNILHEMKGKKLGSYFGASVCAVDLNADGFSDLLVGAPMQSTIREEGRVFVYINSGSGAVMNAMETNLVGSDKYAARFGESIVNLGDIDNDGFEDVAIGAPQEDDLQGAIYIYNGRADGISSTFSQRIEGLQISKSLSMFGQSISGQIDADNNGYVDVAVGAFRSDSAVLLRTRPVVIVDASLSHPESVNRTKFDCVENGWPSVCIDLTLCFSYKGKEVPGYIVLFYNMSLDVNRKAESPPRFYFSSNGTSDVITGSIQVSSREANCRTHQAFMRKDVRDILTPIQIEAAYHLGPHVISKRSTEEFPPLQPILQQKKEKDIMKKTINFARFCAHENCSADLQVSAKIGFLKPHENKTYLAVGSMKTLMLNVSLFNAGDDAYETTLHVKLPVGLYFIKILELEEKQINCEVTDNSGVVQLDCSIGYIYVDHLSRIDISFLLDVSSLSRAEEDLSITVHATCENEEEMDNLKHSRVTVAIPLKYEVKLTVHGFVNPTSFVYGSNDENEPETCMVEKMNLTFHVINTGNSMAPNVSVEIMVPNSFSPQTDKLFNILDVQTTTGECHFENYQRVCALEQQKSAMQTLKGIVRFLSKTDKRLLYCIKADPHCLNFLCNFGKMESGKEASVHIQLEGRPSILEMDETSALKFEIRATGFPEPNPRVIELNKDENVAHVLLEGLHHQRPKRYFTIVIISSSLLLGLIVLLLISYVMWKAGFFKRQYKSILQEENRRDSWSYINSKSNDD
T1 sequence (P05556 21-798): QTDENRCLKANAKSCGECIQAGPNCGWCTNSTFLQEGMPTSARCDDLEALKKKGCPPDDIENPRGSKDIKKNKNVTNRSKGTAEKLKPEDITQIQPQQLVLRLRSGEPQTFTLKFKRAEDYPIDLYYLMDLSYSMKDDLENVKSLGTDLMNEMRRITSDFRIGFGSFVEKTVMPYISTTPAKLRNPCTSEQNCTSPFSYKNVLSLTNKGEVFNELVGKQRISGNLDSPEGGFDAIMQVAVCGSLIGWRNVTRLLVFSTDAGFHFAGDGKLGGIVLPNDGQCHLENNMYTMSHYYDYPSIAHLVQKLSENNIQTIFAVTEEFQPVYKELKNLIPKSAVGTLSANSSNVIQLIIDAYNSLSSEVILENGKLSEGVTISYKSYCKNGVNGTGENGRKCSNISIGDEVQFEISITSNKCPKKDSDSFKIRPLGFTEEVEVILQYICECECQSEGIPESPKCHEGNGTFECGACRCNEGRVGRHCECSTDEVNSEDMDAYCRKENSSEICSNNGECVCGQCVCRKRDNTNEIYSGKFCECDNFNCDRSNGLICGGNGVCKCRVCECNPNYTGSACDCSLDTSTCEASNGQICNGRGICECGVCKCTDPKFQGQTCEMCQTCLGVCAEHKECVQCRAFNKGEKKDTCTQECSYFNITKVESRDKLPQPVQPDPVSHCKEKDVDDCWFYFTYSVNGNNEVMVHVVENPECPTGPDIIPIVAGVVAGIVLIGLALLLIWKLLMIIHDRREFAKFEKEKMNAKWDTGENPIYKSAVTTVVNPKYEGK

SMILES: Cc1ccc([C@H](CC(=O)O)NC(=O)Nc2c(N)ccn(Cc3ccccc3Cl)c2=O)cc1 [(3S)-3-{[({4-amino-1-[(2-chlorophenyl)methyl]-2-oxo-1,2-dihydro-3-pyridinyl}amino)carbonyl]amino}-3-(4-methylphenyl)propanoic acid]
- IC50 (Table 3, 30 minutes at 37° C.): 10 nM

SMILES: COc1ccc([C@H](CC(=O)O)NC(=O)Nc2c(O)ccn(Cc3ccccc3Cl)c2=O)c(C)c1C
- IC50 (Table 4, 30 minutes at 37° C.): 35 nM

SMILES: O=C(Nc1cccn(Cc2ccccc2Cl)c1=O)N[C@@H](C(=O)O)c1ccccc1
- IC50 (Table 4, 30 minutes at 37° C.): 80000 nM

SMILES: CCCCOc1ccc([C@H](CC(=O)O)NC(=O)Nc2c(O)ccn(Cc3ccccc3Cl)c2=O)cc1OCCCC
- IC50 [2]: 25 nM

SMILES: COc1ccccc1Cn1cccc(NC(=O)N[C@@H](CC(=O)O)c2ccc3c(c2)OCO3)c1=O
- IC50 (Table 4, 30 minutes at 37° C.): 500 nM

SMILES: O=C(O)C[C@@H](CCc1ccccc1)NC(=O)Nc1c(O)ccn(Cc2ccccc2Cl)c1=O
- IC50 (Table 6, 30 minutes at 37° C.): 115 nM

SMILES: Cc1ccc([C@H](CC(=O)O)NC(=O)Nc2c(O)c(C)cn([C@H](C)c3ccccc3)c2=O)cc1
- IC50 [2]: 4000 nM

SMILES: Cc1ccc([C@H](CC(=O)O)NC(=O)Nc2cccn(Cc3ccccc3[N+](=O)[O-])c2=O)cc1
- IC50 (Table 4, 30 minutes at 37° C.): 1000 nM

SMILES: CCOc1ccc([C@H](CC(=O)O)NC(=O)Nc2c(O)c(C)cn(Cc3c(Cl)cccc3OC)c2=O)cc1OCC [(3S)-3-[({[1-(2-chloro-6-methoxybenzyl)-4-hydroxy-5-methyl-2-oxo-1,2-dihydropyridin-3-yl]amino}carbonyl)amino]-3-(3,4-diethoxyphenyl)propanoic acid]
- IC50 (Table 6, 30 minutes at 37° C.): 2 nM

SMILES: Cc1ccc([C@H](CC(=O)O)NC(=O)Nc2c(C)ccn(Cc3ccc(Cl)cc3Cl)c2=O)cc1
- IC50 (Table 3, 30 minutes at 37° C.): 30 nM

SMILES: O=C(O)C[C@H](NC(=O)Nc1cccn(Cc2ccccc2Cl)c1=O)c1ccc(O)cc1 [(3S)-3-{[({1-[(2-chlorophenyl)methyl]-2-oxo-1,2-dihydro-3-pyridinyl}amino)carbonyl]amino}-3-(4-hydroxyphenyl)propanoic acid]
- IC50 (Table 4, 30 minutes at 37° C.): 100 nM

SMILES: CCOc1ccc([C@H](CC(=O)O)NC(=O)Nc2c(O)c(C)nn(Cc3ccccc3Cl)c2=O)cc1OCC
- IC50 (Table 6, 30 minutes at 37° C.): 3 nM

SMILES: O=C(O)C[C@H](NC(=O)Nc1cccn(CCc2cccs2)c1=O)c1ccc2c(c1)OCO2
- IC50 (Table 4, 30 minutes at 37° C.): 15000 nM

SMILES: Cc1ccc([C@H](CC(=O)O)NC(=O)Nc2cc(C(F)(F)F)cn(Cc3ccccc3)c2=O)cc1
- IC50 [2]: 1500 nM

SMILES: Cc1ccc([C@H](CC(=O)O)NC(=O)Nc2c(Nc3ccccn3)ccn(Cc3ccccc3Cl)c2=O)cc1
- IC50 (Table 3, 30 minutes at 37° C.): 15 nM

SMILES: CCOc1cccc(Cl)c1Cn1cc(C)c(O)c(NC(=O)N[C@@H](CC(=O)O)c2cccc(OC(F)(F)F)c2)c1=O [(3S)-3-[({[1-(2-chloro-6-ethoxybenzyl)-4-hydroxy-5-methyl-2-oxo-1,2-dihydropyridin-3-yl]amino}carbonyl)amino]-3-[3-(trifluoromethoxy)phenyl]propanoic acid]
- IC50 [1]: 4 nM

SMILES: Cc1ccc([C@H](CC(=O)O)NC(=O)Nc2c(O)ccn(Cc3c(C)cc(C)cc3C)c2=O)cc1
- IC50 [2]: 60 nM

SMILES: Cc1ccc([C@H](CC(=O)O)NC(=O)Nc2c(O)ccn(Cc3ccccc3OC(F)(F)F)c2=O)cc1
- IC50 [2]: 25 nM

SMILES: O=C(O)C[C@H](NC(=O)Nc1cccn(Cc2ccccc2Cl)c1=O)c1ccc(F)c(C(F)(F)F)c1
- IC50 (Table 4, 30 minutes at 37° C.): 200 nM

SMILES: Cc1ccc([C@H](CC(=O)O)NC(=O)Nc2c(O)c(C)cn(Cc3cc(S(=O)(=O)N4CCCC4)ccc3Cl)c2=O)cc1
- IC50 [1]: 15 nM

SMILES: Cc1ccc([C@H](CC(=O)O)NC(=O)Nc2cccn(Cc3ccc(Cl)cc3Cl)c2=O)cc1
- IC50 (Table 4, 30 minutes at 37° C.): 400 nM

SMILES: N#Cc1cccc(CN2CCCCC(NC(=O)N[C@@H](CC(=O)O)c3ccc4c(c3)OCO4)C2=O)c1 (stereo partly drawn)
- IC50 (Table 4, 30 minutes at 37° C.): 40 nM

SMILES: Cc1ccc([C@H](CC(=O)O)NC(=O)Nc2c(Br)ccn(Cc3ccccc3Cl)c2=O)cc1
- IC50 (Table 3, 30 minutes at 37° C.): 20 nM

SMILES: CCCOc1ccc(Cl)c(Cn2cc(C)c(O)c(NC(=O)N[C@@H](CC(=O)O)c3ccc(C)cc3)c2=O)c1
- IC50 [1]: 6 nM

SMILES: Cc1ccc([C@H](CC(=O)O)N(C)C(=O)Nc2c(O)ccn(Cc3ccccc3Cl)c2=O)cc1
- IC50 [2]: 400 nM

SMILES: Cc1ccc([C@H](CC(=O)O)NC(=O)Nc2c(Nc3ccc(C(=O)O)cc3)ccn(Cc3ccccc3Cl)c2=O)cc1 [4-{[3-[({[(1S)-2-carboxy-1-(4-methylphenyl)ethyl]amino}carbonyl)amino]-1-(2-chlorobenzyl)-2-oxo-1,2-dihydropyridin-4-yl]amino}benzoic acid]
- IC50 [2]: 4 nM

SMILES: Cc1ccc([C@H](CC(=O)O)NC(=O)Nc2c(O)ccn(Cc3cc(C)ccc3C)c2=O)cc1
- IC50 [2]: 20 nM

Further lines, results first:

- IC50 [1]: 225 nM
SMILES: CCOc1c(Cl)ccc([C@H](CC(=O)O)NC(=O)Nc2c(O)c3c(n(Cc4ccccc4Cl)c2=O)CCC3)c1Cl

- IC50 [2]: 20 nM
SMILES: O=C(O)CC(NC(=O)Nc1c(O)ccn(Cc2ccccc2Cl)c1=O)c1ccc2ccccc2c1 (stereo not drawn) [3-[({[1-(2-chlorobenzyl)-4-hydroxy-2-oxo-1,2-dihydropyridin-3-yl]amino}carbonyl)amino]-3-(2-naphthyl)propanoic acid]

- IC50 [2]: 15 nM
SMILES: CCOc1cccc([C@H](CC(=O)O)NC(=O)Nc2c(O)c(C)c(C)n(Cc3c(C)cccc3Cl)c2=O)c1

- IC50 (Table 6, 30 minutes at 37° C.): 3 nM
SMILES: CC(C)Oc1cccc([C@H](CC(=O)O)NC(=O)Nc2c(O)ccn(Cc3ccccc3Cl)c2=O)c1 [(3S)-3-[({[1-(2-chlorobenzyl)-4-hydroxy-2-oxo-1,2-dihydropyridin-3-yl]amino}carbonyl)amino]-3-(3-isopropoxyphenyl)propanoic acid]

- IC50 [2]: 50 nM
SMILES: O=C(O)C[C@H](NC(=O)Nc1c(O)ccn(Cc2ccccc2Cl)c1=O)c1cc(F)cc(F)c1

- IC50 [1]: 3 nM
SMILES: COc1ccc([C@H](CC(=O)O)NC(=O)Nc2c(O)c3c(n(Cc4c(C)cccc4Cl)c2=O)CCC3)cc1F

- IC50 [1]: 1.6 nM
SMILES: CN(c1cccc([C@H](CC(=O)O)NC(=O)Nc2c(O)c3c(n(Cc4ccccc4Cl)c2=O)CCC3)c1)S(C)(=O)=O [(3S)-3-{[({1-[(2-chlorophenyl)methyl]-4-hydroxy-2-oxo-2,5,6,7-tetrahydro-1H-cyclopenta[b]pyridin-3-yl}amino)carbonyl]amino}-3-{3-[methyl(methylsulfonyl)amino]phenyl}propanoic acid]

- IC50 [1]: 4 nM
SMILES: O=C(O)C[C@H](NC(=O)Nc1c(O)c2c(n(Cc3ccccc3Cl)c1=O)CCC2)c1cccc(C(F)F)c1

- IC50 (Table 6, 30 minutes at 37° C.): 3 nM
SMILES: CCOc1cccc([C@H](CC(=O)O)NC(=O)Nc2c(O)c3c(n(Cc4ccccc4Cl)c2=O)CCC3)c1

- IC50 (Table 4, 30 minutes at 37° C.): 15 nM
SMILES: O=C(O)C[C@H](NC(=O)Nc1c(O)ccn(Cc2ccccc2Cl)c1=O)c1ccc(OC(F)(F)F)cc1

- IC50 [2]: 15 nM
SMILES: COc1cc([C@H](CC(=O)O)NC(=O)Nc2c(O)c(C)c(C)n(Cc3ccccc3Cl)c2=O)ccc1C

- IC50 [1]: 30 nM
SMILES: Cc1cccc(-c2ccc([C@H](CC(=O)O)NC(=O)Nc3c(O)ccn(Cc4ccccc4Cl)c3=O)cc2)c1

- IC50 [2]: 50 nM
SMILES: Cc1ccc(C)c([C@H](CC(=O)O)NC(=O)Nc2c(O)ccn(Cc3ccccc3Cl)c2=O)c1

- IC50 (Table 3, 30 minutes at 37° C.): 25 nM
SMILES: O=C(O)C[C@H](NC(=O)Nc1c(O)ccn(Cc2ccccc2Cl)c1=O)c1ccc(C(F)(F)F)cc1

- IC50 [1]: 30 nM
SMILES: Cc1cn(Cc2ccccc2Cl)c(=O)c(NC(=O)N[C@@H](CC(=O)O)c2cccc3ccn(C)c23)c1O

- IC50 (Table 6, 30 minutes at 37° C.): 4 nM
SMILES: CCOc1cccc([C@H](CC(=O)O)NC(=O)Nc2c(O)c(C)cn(Cc3c(C)cccc3Cl)c2=O)c1

- IC50 [2]: 3 nM
SMILES: COc1cc([C@H](CC(=O)O)NC(=O)Nc2c(O)ccn(Cc3ccccc3Cl)c2=O)cc(OC)c1C [(3S)-3-[({[1-(2-chlorobenzyl)-4-hydroxy-2-oxo-1,2-dihydropyridin-3-yl]amino}carbonyl)amino]-3-(3,5-dimethoxy-4-methylphenyl)propanoic acid]

- IC50 [1]: 2 nM
SMILES: CCOc1cccc([C@H](CC(=O)O)NC(=O)Nc2c(O)c3c(n(Cc4c(Cl)cccc4OCC)c2=O)CCC3)c1

Reference: patent US6972296B2, “Carboxylic acid derivatives that inhibit the binding of integrins to their receptors” (Encysive Pharmaceuticals Inc., priority 1999, dated 2005)
